Marks after values point to notes of the source that are not given here.
What was measured:
[1] = tested on: α- and β-isoforms of human estrogen receptor; assay: Antiestrogenic activity: ERE-luciferase reporter in HeLa cells transfected with hERα or hERβ, with 17β-estradiol; assay type: cell-based; conditions: relative luminescence for β-isoform divided by that for α-isoform, 17β-estradiol 100 pM (α), 1 nM (β)
Source text: cDNA fragments for α- and β-isoforms of human estrogen receptor were cloned from a human liver cDNA library (Toyobo Co, Ltd.) by RT-PCR using oligonucleotides having the following base sequences as primers. For cloning the a-isoform, oligonucleotides 5′-[…]-3′ and 5′-[…]-3′ were used, while oligonucleotides 5′-[…]-3′ and 5′-[…]-3′ were used for cloning the β-isoform. The CDNA fragments for the α- and β-isoforms obtained by the RT-PCR procedures were blunt-ended, and each inserted into a vector for expression pRc/RSV (Invitrogen) at its blunt-ended Hind III cleavage site to obtain expression plasmids pRc-RSV-hERα and pRc-RSV-hERβ. In addition, an oligonucleotide 5′-[…]-3′ comprising an estrogen response element was inserted into a vector pGV-P (Toyo Ink Mfg. Co., Ltd.) at the Sma I cleavage site to obtain a luciferase reporter plasmid pGV-ERE.
Separately, HeLa cells which had been subcultured in Eagle's MEM medium containing 10% (v/v) phenol red-free and active charcoal-treated serum were inoculated in 24-well plates (φ16 mm well) at a density of 40,000 cells/well, cultured for 24 hours at 37° C. in the presence of 5% CO2, and then the medium was exchanged with serum-free Eagle's MEM medium.
The above expression plasmid pRc-RSV-hERα or pRc-RSV-hERβ, and the luciferase reporter plasmid pGV-ERE incorporating the estrogen response element were transfected into the above HeLa cells using the lipofectin method. Specifically, 0.3 μg of the expression plasmid pRc-RSV-hERα or pRc-RSV-hERβ, 0.1 μg of pGV-ERE, and 0.35 μl of Lipofectin mixed together, and added to the above HeLa cells. The HeLa cells were then cultured for 6 hours at 37° C. in the presence of 5% CO2. Next, the medium was exchanged with Eagle's MEM medium containing 10% serum (active charcoal-treated), and the cultivation was continued overnight at 37° C. under 5% CO2. Furthermore, the medium was exchanged with Eagle's MEM medium containing 10% serum (active charcoal-treated) which had been further supplemented with a solution of a test compound in DMSO (or DMSO alone) and 17β-estradiol (final concentration: 100 pM for the α-isoform, and 1 nM for the β-isoform), and the cells were cultured for 48 hours. After removing the medium and washing the cells twice with PBS(−), 50 μl/well of a lysis solution was added, and the cells were lysed at room temperature. An aliquot of this cell lysate was mixed with a luciferase assay substrate solution (Toyo Ink Mfg. Co., Ltd.), and the luminescence was measured using a luminometer. For each of α- and β-isoforms of estrogen receptor, the relative value of luminescence obtained in each experiment in which 17β-estradiol and a solution of one of test compounds in DMSO were added was then calculated, considering the luminescence obtained when 17β-estradiol and DMSO were added as 100. Next, the antiestrogenic activity (β/α) was calculated by dividing the relative value thus obtained for the β-isoform by that for the α-isoform.

ovariectomized rats = assay: Effects on ovariectomized rat: bone mineral density of tibial epiphysis; assay type: in vivo; conditions: 17 administrations, average for 5-8 animals, OVX control 79.9
Source text: Six-weeks old female SD rats (Charles River Japan) were subjected to ovariectomy of right and left ovaries, after one-week pre-feeding. Firstly, the hairs around the both flanks of the rats were shaved away. After anesthetizing the rat with diethyl ether, the area around the flanks was disinfected, and incised about 1 cm below the last ribs. The ovaries and uterus were extracted along with fats through the incision, and the ovaries were excised after ligating between ovaries and uterus with suture. The uterus and fats were then returned into the abdomens, and the incision was sutured. For rats receiving mock operations, ovaries were extracted as described above, and then returned into the abdomens as they were without ligature and excision. The rats which received such operations were divided into groups of four animals, and each group was housed in a polypropylene cage, and fed with chow (CRF-1; Charles River Japan) and water ad libitum.
A compound was weighed out into a mortar, and the crystals were finely ground with a pestle. To the ground compound, 1% hydroxypropyl cellulose (HPC, 150-400 cP) was then added in small amounts while rubbing for suspending and mixing the compound to prepare an administration liquid having a given concentration of the compound. Such liquids for administration were newly prepared every week.
The weights of ovariectomized rats described above were measured at an interval of one week, and the doses of the above liquid for administration were determined based on the weights. The same doses were used for one week until the next weight measurement. Administration to rats was started at one week after the ovariectomy, and the above liquids for administration were orally administered 17 times in total to groups of 5-8 animals through a 2 ml volume syringe attached with a metal sonde and once a day at a frequency of 5 times a week. […] The bone mineral density of the tibial epiphysis proximal to the knee was measured by an area scanning method.

[2] = tested on: Rat osteoblastic cell line UMR 106; assay: Effects on osteoblast: ALP activity and TGFβ amount; assay type: cell-based; conditions: two days, corrected for protein; for ALP activity, relative value considering the value for control as 1: UMR 106 cells; for TGFβ, relative value considering the value for control as 1: UMR 106 medium supernatant
Protocol: Rat osteoblastic cell line UMR 106 was subcultured in Eagle's MEM medium containing 10% fetal bovine serum (active charcoal-treated), inoculated in 6-well plates (φ 36 mm well) at a density of 20,000 cells/well, and cultured overnight in 2 ml/well of the same serum-containing Eagle's MEM medium at 37° C. in the presence of 5% CO2. On the following day, the medium was aspirated, and the wells were washed by adding 1 ml/well of serum-free Eagle's MEM medium supplemented with Supplement A (a solution of insulin, transferrin, and selenium; Gibco BRL). After aspirating the washings, 2 ml/well of serum-free Eagle's MEM medium supplemented with Supplement A was newly added, and the cultivation was further continued at 37° C. Two days after the medium exchange, the medium was aspirated from each well. Into the wells, 2 ml/well of serum-free Eagle's MEM medium containing Supplement A to which a solution of a test compound in DMSO (or DMSO alone) had been added and mixed was then added, and the cultivation was further continued at 37° C. Two days after the addition of compound, the medium was collected, centrifuged (14,000 rpm, 5 minutes), and the supernatant was aliquoted. To each 0.6 ml aliquot, 20 μl of 1N HCl was added, mixed and then they were stored with ice-cooling. On the other hand, the wells from which the medium had been removed were washed twice with PBS (−). After thoroughly removing the residual liquid, 0.5 ml/well of extra pure water was added, and the cells were harvested, and stored at −80° C. The ice-cold medium supernatant described above was neutralized with 1N NaOH, and 100 μl aliquot thereof was sampled, and used in quantifying TGFβ using an ELISA kit for TGFβ (Biochemical Research Institute, Morinaga Milk Industry Co. Ltd.). On the other hand, the frozen cells were thawed by bringing them to room temperature. The cell suspension thus obtained by thawing the frozen cells was then centrifuged (14,000 rpm, 5 minutes), and 50 μl of the supernatant was used in measurement of alkaline phosphatase (ALP) activity. ALP activity was measured according to the method of Lowry [J. Biol. Chem. vol. 207, 19-37 (1954)]. The samples remained without being used for measurements of TGFβ and ALP activity were used in quantification of protein according to the method of Lowry [J. Biol. Chem. vol. 193, 265-275 (1951)].
The relative values for the amount of TGFβ and the ALP activity after correcting for the amounts of protein are shown in Table 2.

| Molecule | Antiestrogenic activity (β/α) ([1]; compound 0.1 μM) | Antiestrogenic activity (β/α) ([1]; compound 1 μM) | Antiestrogenic activity (β/α) ([1]; compound 10 μM) | Bone mineral density (ovariectomized rats; 50 mg/kg-weight/day oral) | ALP activity, relative value considering the value for control as 1 ([2]; compound 0.1 μM) | TGFβ, relative value considering the value for control as 1 ([2]; compound 0.1 μM) | ALP activity, relative value considering the value for control as 1 ([2]; compound 1 μM) | TGFβ, relative value considering the value for control as 1 ([2]; compound 1 μM) | Bone mineral density (ovariectomized rats; 0.1 mg/kg-weight/day oral) |
| --- | --- | --- | --- | --- | --- | --- | --- | --- | --- |
| Cc1cc(C(c2ccc(OCCN(C)C)cc2)c2cc(C)c(O)cc2C)c(C)cc1O [Compound 1, bis(2,5-dimethyl-4-hydroxyphenyl)[4-(2-dimethylamino-1-ethoxy)phenyl]methane] | 5.2 | 8.6 | 3.0 | 88.0* mg/cm^2 | 2.0 | 1.4 | 5.4 | 1.1 | – |
| Cc1cc(C(c2cccc(OCCN(C)C)c2)c2cc(C)c(O)cc2C)c(C)cc1O [Compound 2, bis(2,5-dimethyl-4-hydroxyphenyl)[3-(2-dimethylamino-1-ethoxy)phenyl]methane] | 19 | 5.5 | 2.3 | 91.2* mg/cm^2 | 1.5 | – | – | – | – |
| Cc1cc(C(c2cccc(OCCN(C)C)c2)c2cc(C)c(O)c(C)c2C)c(C)c(C)c1O [Compound 3] | 2.6 | 4.0 | 2.0 | – | – | – | – | – | – |
| Cc1cc(C(c2ccc(OCCN(C)C)cc2)c2cc(C)c(O)c(C)c2)cc(C)c1O [Compound 4] | 1.5 | 14 | 5.0 | – | – | – | – | – | – |
| Cc1cc(C(c2cccc(OCCN(C)C)c2)c2cc(C)c(O)c(C)c2)cc(C)c1O [Compound 5] | – | 8.4 | 5.0 | – | – | – | – | – | – |
| C#C[C@]1(O)CC[C@H]2[C@@H]3CCc4cc(O)ccc4[C@H]3CC[C@@]21C [ethinyl estradiol, reference compound] | – | – | – | – | – | – | – | – | 88.6* mg/cm^2 |
| Hydroxytamoxifen [reference compound] | 1.3 | 1.9 | 1.5 | – | – | – | – | – | – |

— patent US20020156301A1, “Triphenylmethane derivatives and use thereof” (Sumitomo Chemical Co., Ltd., priority 1997, published 2002)
